Measurements as given in ChEMBL document CHEMBL1208759, “A newly synthesized, potent tyrosinase inhibitor: 5-(6-hydroxy-2-naphthyl)-1,2,3-benzenetriol” (Bioorg Med Chem Lett, 2010).

What was measured:
[1] = Cytotoxicity against mouse B16 cells assessed as cell viability at 100 uM after 24 hrs by MTT assay; type: cell-based; conditions: read-out: Activity
B16 [2] = test: Antimelanogenic activity in mouse B16 cells assessed as inhibition of melanin content at 100 uM relative to alpha-MSH; type: functional
[3] = Cytotoxicity against mouse B16 cells assessed as cell viability at 50 uM after 24 hrs by MTT assay; type: cell-based; conditions: read-out: Activity
[4] = biological target: T1, Tyrosinase (Agaricus bisporus) (UniProt O42713); conditions: 5 uM
T1 sequence (whole entry): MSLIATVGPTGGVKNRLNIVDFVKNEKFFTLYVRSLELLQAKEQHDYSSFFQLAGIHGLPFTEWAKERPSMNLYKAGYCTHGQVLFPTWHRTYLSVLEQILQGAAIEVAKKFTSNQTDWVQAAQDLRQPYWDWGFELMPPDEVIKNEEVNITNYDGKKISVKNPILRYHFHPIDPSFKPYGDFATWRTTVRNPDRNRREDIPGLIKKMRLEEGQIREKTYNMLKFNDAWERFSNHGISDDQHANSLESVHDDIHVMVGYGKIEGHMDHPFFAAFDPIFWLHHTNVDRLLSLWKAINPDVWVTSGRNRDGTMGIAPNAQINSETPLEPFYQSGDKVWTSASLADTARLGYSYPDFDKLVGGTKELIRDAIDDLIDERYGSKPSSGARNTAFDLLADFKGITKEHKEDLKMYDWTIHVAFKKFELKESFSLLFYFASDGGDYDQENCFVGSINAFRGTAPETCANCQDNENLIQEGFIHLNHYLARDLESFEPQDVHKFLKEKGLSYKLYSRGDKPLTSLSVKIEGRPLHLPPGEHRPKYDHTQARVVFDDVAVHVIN
Description: Inhibition of mushroom tyrosinase at 5 uM

B16 [5] = test: Antimelanogenic activity in mouse B16 cells assessed as inhibition of melanin content at 25 uM relative to alpha-MSH; type: functional
[6] = biological target: T2, Tyrosinase (Mus musculus) (UniProt P11344); test: Inhibition of tyrosinase activity in mouse B16 cells at 400 uM; type: cell-based
T2 sequence (whole entry): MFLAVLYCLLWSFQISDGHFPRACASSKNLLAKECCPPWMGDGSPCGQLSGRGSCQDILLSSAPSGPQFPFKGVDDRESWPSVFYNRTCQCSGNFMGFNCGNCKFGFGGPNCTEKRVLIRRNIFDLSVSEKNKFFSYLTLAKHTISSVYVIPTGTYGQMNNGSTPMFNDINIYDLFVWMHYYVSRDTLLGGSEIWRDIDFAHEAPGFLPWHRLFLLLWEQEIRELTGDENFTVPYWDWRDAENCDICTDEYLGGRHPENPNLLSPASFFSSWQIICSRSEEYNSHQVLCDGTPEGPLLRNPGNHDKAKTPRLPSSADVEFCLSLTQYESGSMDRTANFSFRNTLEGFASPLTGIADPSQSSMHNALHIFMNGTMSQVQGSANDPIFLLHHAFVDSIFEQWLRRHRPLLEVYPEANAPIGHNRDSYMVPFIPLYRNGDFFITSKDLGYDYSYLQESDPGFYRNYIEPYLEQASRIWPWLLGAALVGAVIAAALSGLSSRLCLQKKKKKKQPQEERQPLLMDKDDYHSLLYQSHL

[7] = Cytotoxicity against mouse B16 cells assessed as cell viability at 25 uM after 24 hrs by MTT assay; type: cell-based; conditions: read-out: Activity
[8] = biological target: T1, Tyrosinase (Agaricus bisporus); conditions: 1 uM
Description: Inhibition of mushroom tyrosinase at 1 uM

[9] = biological target: T2, Tyrosinase (Mus musculus); test: Inhibition of tyrosinase activity in mouse B16 cells at 100 uM; type: cell-based
[10] = biological target: T1, Tyrosinase (Agaricus bisporus); conditions: 0.5 uM
Description: Inhibition of mushroom tyrosinase at 0.5 uM

[11] = biological target: T1, Tyrosinase (Agaricus bisporus); conditions: 2.5 uM
Description: Inhibition of mushroom tyrosinase at 2.5 uM

[12] = biological target: T2, Tyrosinase (Mus musculus); test: Inhibition of tyrosinase activity in mouse B16 cells at 25 uM; type: cell-based
B16 [13] = test: Antimelanogenic activity in mouse B16 cells assessed as inhibition of melanin content at 400 uM relative to alpha-MSH; type: functional

`Oc1ccc2cc(-c3cc(O)c(O)c(O)c3)ccc2c1` gave a viability at 24 h, 100 µM [1] of 95.1%, an inhibition at 100 µM (B16 [2]) of 45.8% and a viability at 24 h, 50 µM [3] of 98.1%. It also gave an inhibition [4] of 86.1%, an inhibition at 25 µM (B16 [5]) of 50.7% and an inhibition [6] of 2.05%. The viability at 24 h, 25 µM [7] was 98.3%, the inhibition [8] was 18.7% and the inhibition [9] was 14.1%. For the same compound, the inhibition [10] was 7.53%, the inhibition [11] was 39.4% and the inhibition [12] was 26.2%. The inhibition at 400 µM (B16 [13]) was 34.7%.
